Test results published in ChEMBL document CHEMBL1773013, “Malyngamide 3 and cocosamides A and B from the marine cyanobacterium Lyngbya majuscula from Cocos Lagoon, Guam” (J Nat Prod, 2011).

Tests used:
MCF7 = assay: Cytotoxicity against human MCF7 cells assessed as cell viability after 48 hrs by MTT assay; type: functional, cell-based; conditions: MCF7, 48 h
HT-29 = assay: Cytotoxicity against human HT-29 cells assessed as cell viability after 48 hrs by MTT assay; type: functional, cell-based; conditions: HT-29, 48 h

Structure (SMILES) | IC50 (MCF7) [µM] | IC50 (HT-29) [µM]
C=CCCC[C@@H]1OC(=O)CNC(=O)[C@H](Cc2ccccc2)N(C)C(=O)[C@@H]2CCCN2C(=O)[C@H](Cc2ccccc2)N(C)C(=O)[C@H](C(C)C)NC(=O)C1(C)C [COCOSAMIDE A] | 30 | 24
C#CCCC[C@@H]1OC(=O)CNC(=O)[C@H](Cc2ccccc2)N(C)C(=O)[C@@H]2CCCN2C(=O)[C@H](Cc2ccccc2)N(C)C(=O)[C@H](C(C)C)NC(=O)C1(C)C [COCOSAMIDE B] | 39 | 11
CCCCCCC[C@@H](C/C=C/CCC(=O)N(C)C/C(=C\Cl)CC(=O)CC(=O)NC[C@H](O)CC(=O)OC)OC [MALYNGAMIDE 3] | 29 | 48
CC(=O)O[C@H]1C(=O)[C@@]2(C)[C@H]([C@H](OC(=O)c3ccccc3)[C@]3(O)C[C@H](OC(=O)[C@H](O)[C@@H](NC(=O)c4ccccc4)c4ccccc4)C(C)=C1C3(C)C)[C@]1(OC(C)=O)CO[C@@H]1C[C@@H]2O [PACLITAXEL] | 0.006 | 0.007
